For 16 compounds, GI50 and TGI results are on record in PubChem BioAssay (NCI).

Some test systems named below: DU-145 prostate; MCF7 breast; MDA-MB-231 breast; PC-3 prostate.
Common to all, as to assay: DTP human tumour cell line panel, 48 h

Where “and” joins values, the source holds several entries; their conditions need not be identical. Equal values may be shown once.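 Assay format: 96-well plates, 48-hour exposure. At the GI50, growth is halved. TGI denotes the concentration required for complete inhibition of growth.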

For `CCCCCCCCOC(=O)c1cc(O)c(O)c(O)c1`, the GI50 in the test on DU-145 prostate was 2.84 µM; in the test with MCF7 breast, 4.14 µM; in the test with MDA-MB-231 breast, 12.1 µM; with PC-3 prostate, 2.02 µM. In addition, the total growth inhibition concentration (TGI) in the test with DU-145 prostate stood at 14 µM; in the test on MCF7 breast, 26.7 µM; in the test with MDA-MB-231 breast, 63.1 µM; in the test on PC-3 prostate, 20.5 µM.
Turning to `Cc1cc2cc(Oc3ccnc(Nc4cccc(CS(=O)(=O)NCCN(C)C)c4)n3)ccc2[nH]1`, the GI50 in the test on DU-145 prostate was 9.86 µM; in the test with MCF7 breast, 4.03 µM; in the test with MDA-MB-231 breast, 4.61 µM; in the test with PC-3 prostate, 3.38 µM. The TGI is 21.6 µM in the test with DU-145 prostate, 18.4 µM with MCF7 breast, 17.2 µM in the test on MDA-MB-231 breast and 13.2 µM with PC-3 prostate.
Regarding `N#C/C(=C/c1cccs1)c1cccs1`, the GI50 with DU-145 prostate, with MCF7 breast, in the test with MDA-MB-231 breast and with PC-3 prostate was above 100 µM each time. Besides, the TGI with DU-145 prostate, in the test with MCF7 breast, in the test with MDA-MB-231 breast and in the test with PC-3 prostate was above 100 µM throughout.
In the case of `CC(C)(C)OC(=O)N(CCCn1c2c(c3ccccc3c1=O)C(=O)c1ccccc1-2)CCN(CCCn1c2c(c3ccccc3c1=O)C(=O)c1ccccc1-2)C(=O)OC(C)(C)C`, the GI50 was above 50 µM with DU-145 prostate, 21.3 µM with MCF7 breast, 15.3 µM in the test with MDA-MB-231 breast and above 50 µM in the test on PC-3 prostate. Moreover, the TGI in the test on DU-145 prostate, in the test on MCF7 breast, in the test with MDA-MB-231 breast and with PC-3 prostate was above 50 µM in each case.
Regarding `CC(C)NCCCNC1=C(Cl)C(=O)c2ccccc2C1=O`, the GI50 is 1.98 µM in the test on DU-145 prostate, 4.13 µM in the test on MCF7 breast, 4.08 µM in the test on MDA-MB-231 breast and 3.92 µM with PC-3 prostate. Also, the concentration for total growth inhibition (TGI) in the test with DU-145 prostate worked out at 3.49 µM; in the test with MCF7 breast, 17.5 µM; in the test with MDA-MB-231 breast, 18.3 µM; in the test with PC-3 prostate, 20.7 µM.
With `CCCCCCCCCCCCCCCC[N+](C)(C)C`, the 50% growth inhibitory concentration (GI50) in the test on DU-145 prostate was 0.233 µM and 1.4 µM; with MCF7 breast, 0.313 µM and 1.86 µM; in the test with MDA-MB-231 breast, 0.169 µM and 1.38 µM; in the test on PC-3 prostate, 0.15 µM. Also, the TGI with DU-145 prostate was 0.665 µM and 2.91 µM; in the test with MCF7 breast, 1.44 µM and 5.2 µM; in the test on MDA-MB-231 breast, 0.405 µM and 3.55 µM; in the test with PC-3 prostate, 0.376 µM.
Consider `Cc1ccc2nc(NC(=O)CSC(=S)N3CCN(Cc4ccccc4)CC3)sc2c1`, for which the GI50 in the test with DU-145 prostate was above 100 µM; in the test with MCF7 breast, 64.5 µM; with MDA-MB-231 breast, above 100 µM; in the test on PC-3 prostate, above 100 µM. Besides, the TGI in the test with DU-145 prostate, with MCF7 breast, in the test on MDA-MB-231 breast and with PC-3 prostate was above 100 µM in each case.
As for `CCCCCn1ncc(-c2c(O)c(O)cc3c(O)c(-c4c(C)cc5c(-c6cnn(CCCCC)n6)c(O)c(O)cc5c4O)c(C)cc23)n1`, the 50% growth inhibitory concentration (GI50) was 0.0647 µM in the test with DU-145 prostate, 0.0874 µM in the test with MCF7 breast, 0.182 µM with MDA-MB-231 breast and 0.147 µM in the test on PC-3 prostate. Also, the concentration for total growth inhibition (TGI) with DU-145 prostate was determined as 6.02 µM; in the test on MCF7 breast, 4.24 µM; in the test with MDA-MB-231 breast it was 5.67 µM; in the test on PC-3 prostate it was 2.53 µM.
`CN1CCN(c2ccc3nc(-c4ccc5nc(-c6ccc(C(F)(F)F)cc6)[nH]c5c4)[nH]c3c2)CC1`: the GI50 in the test with DU-145 prostate is 1.76 µM; in the test on MCF7 breast it was 0.578 µM; in the test on MDA-MB-231 breast it was 2.11 µM; in the test with PC-3 prostate it was 1.66 µM. Besides, the total growth inhibition concentration (TGI) amounted to 3.25 µM in the test with DU-145 prostate, 2.19 µM with MCF7 breast, 3.85 µM with MDA-MB-231 breast and 3.79 µM in the test on PC-3 prostate.
In the case of `CCN(CCc1ccc(F)cc1)c1ccc(CO)c(Cl)c1`, the GI50 in the test on DU-145 prostate is 14.4 µM; in the test on MCF7 breast, 4.72 µM; in the test on MDA-MB-231 breast it was 11.4 µM; in the test with PC-3 prostate it was 10.9 µM. The TGI amounted to 29.2 µM with DU-145 prostate, 19.9 µM in the test with MCF7 breast, 24.4 µM with MDA-MB-231 breast and 24.8 µM with PC-3 prostate.
With `CO/N=C(\COc1ccc2c(=O)cc(-c3ccccc3)oc2c1)c1ccc(OC)cc1`, the values for the GI50 with DU-145 prostate, in the test on MDA-MB-231 breast and in the test with PC-3 prostate were above 100 µM, 48.4 µM and above 100 µM, respectively. Besides, the TGI in the test on DU-145 prostate, in the test with MDA-MB-231 breast and in the test on PC-3 prostate was above 100 µM throughout.
With `CN1CCN(c2ccc(NC3=C(Cl)C(=O)c4ncccc4C3=O)cc2C(F)(F)F)CC1`, the GI50 in the test with DU-145 prostate is 1.91 µM; with MCF7 breast it was 1.7 µM; with MDA-MB-231 breast, 1.69 µM; in the test on PC-3 prostate, 2.23 µM. The TGI in the test with DU-145 prostate worked out at 3.71 µM; in the test on MCF7 breast it was 4.23 µM; with MDA-MB-231 breast, 5.02 µM; in the test with PC-3 prostate, 6.85 µM.
`COc1ccc(OC)c(-c2cn3nc(-c4c[nH]c5ccc(Br)cc45)sc3n2)c1`: the GI50 in the test with DU-145 prostate is 2.8 µM; in the test with MCF7 breast, 1.77 µM; in the test on MDA-MB-231 breast it was 1.73 µM; with PC-3 prostate, 1.87 µM. Further, the total growth inhibition concentration (TGI) with DU-145 prostate stood at 7.71 µM; with MCF7 breast, 5.13 µM; in the test on MDA-MB-231 breast it was 4.05 µM; in the test with PC-3 prostate, 4.66 µM.
Consider `COc1ccc(/C=C2/CCOC2=O)cc1`, for which the GI50 with DU-145 prostate, with MCF7 breast, with MDA-MB-231 breast and in the test on PC-3 prostate was above 100 µM throughout. Further, the total growth inhibition concentration (TGI) in the test with DU-145 prostate, in the test with MCF7 breast, in the test on MDA-MB-231 breast and in the test with PC-3 prostate was above 100 µM in each case.
Regarding `CC(=O)c1ccc(NCn2nc(-c3ccccc3O)oc2=S)cc1`, the results for the GI50 in the test with MCF7 breast, with MDA-MB-231 breast and in the test with PC-3 prostate were above 100 µM, 37.6 µM and 46.4 µM, respectively. In addition, the concentration for total growth inhibition (TGI) in the test on MCF7 breast, with MDA-MB-231 breast and in the test on PC-3 prostate was above 100 µM in each case.
For the compound `COc1cc(C)c(N(C)C(=O)CN(C)C)cc1Nc1nc(Nc2cccc(F)c2C(N)=O)c2cc[nH]c2n1`, the GI50 was above 25 µM in the test with DU-145 prostate, 2.7 µM in the test on MCF7 breast, above 25 µM in the test on MDA-MB-231 breast and above 25 µM with PC-3 prostate. The total growth inhibition concentration (TGI) in the test with DU-145 prostate, with MCF7 breast, in the test on MDA-MB-231 breast and in the test on PC-3 prostate was above 25 µM in each case.

In general, GI50 refers to the concentration that inhibits growth by half. The term TGI denotes the concentration at which net growth stops.
